# Source: patent US11938122B2, “5-[[4-[2-[5-(1-hydroxyethyl)pyridin-2-yl]ethoxy]phenyl]methyl]-1,3- thiazolidine-2,4-dione for treating nonalcoholic fatty liver disease” (Minoryx Therapeutics S.L., priority 2016, dated 2024)
# How the values were obtained:
# [1] = tested on: MCD diet NASH mouse model; test: Methionine Choline Deficient (MCD) diet NASH mouse model; type: in vivo; details: 62.5 mg/kg BID oral, 7 weeks
# Source text: According to one NASH model in mice (See Verdelho Machado et al., PlosOne May 27:10(5):e0127991 (2015)), male C57BL/6 inbred mice, aged 8 weeks, were obtained from Charles River, France. During the acclimation phase, standard (control chow) diet (RM1 (E) 801492, SDS) and tap water was provided ad libitum. Mice were then fed a Methionine Choline Deficient (MCD) diet (ref #A02082002B from Research Diets, USA) supplemented without or with the test item, provided ad libitum. All procedures were performed in accordance with the Guide for the Care and Use of Laboratory Animals (revised 1996 and 2011, 2010/63/EU) and French laws. 20 animals were housed in ventilated and enriched housing cages (310×125×127 mm^3) throughout the experimental phase. Animals' cages litters were changed at least once a week. They were housed in groups of 10 animals during the whole study, on a normal 12 hours light cycle (at 08:00 pm lights off), 22±2° C. and 50±10% relative humidity.
# After the acclimation period, mice (n=20) were weighed and randomized into 2 homogenous treatment groups based on body weight (n=10/group), put on a MCD diet, and treated BID orally with vehicle or MIN-102 for 7 weeks. Body weight was measured 3 times/week until the end of the experimental phase. At 7 weeks of diet/treatment, mice were weighed and treated at ˜08:00 am in the morning, then bled (maximal volume/EDTA) at ˜1:00 pm. Plasma was then immediately isolated and stored at […] prior to assay plasma ALT and AST. The plasma volume left over was stored at […] for eventual additional analysis.
# After blood collection, mice were sacrificed by cervical dislocation under isoflurane anesthesia and exsanguinated with sterile saline. Liver was collected and weighted. A ˜20 mg liver sample (weight recorded) was dissected for hepatic total cholesterol and triglycerides levels. A 0.5 cm^3 liver sample was frozen in isopentane for oil red O staining. […]
# A NAFLD scoring system (NAS) adapted from Kleiner et al. (Hepatology. 41(6):1313-1321 (2005)) was used. An individual mouse NAS total score was calculated for each animal by summing up the score for (1) hepatocellular steatosis, (2) liver inflammation, (3) lobular fibrosis, and (4) hepatocyte ballooning. […]
# Data are expressed as mean±SEM. […]
# The preventive effects of MIN-102 was evaluated in a 7-week Methionine Choline Deficient (MCD) diet NASH mouse model (Verdelho Machado et al.). […]
# After the acclimation period, C57BL6/J male mice (n=20) were weighed and randomized into 2 homogenous treatment groups based on body weight (n=10/group), put on a MCD diet, and treated BID orally with a vehicle or MIN-102 (125 mg/Kg/day) for 7 weeks. Body weight was measured 3 times/week until the end of the experimental phase. […]
# [2] = tested on: major drug metabolizing cytochrome P450 (CYP) enzymes; test: Reversible and time-dependent inhibition (TDI) of major CYP enzymes, human liver microsomes; type: in vitro ADME; details: in vitro concentrations of 100 μM or lower
# Experimental: (§1) Inhibition was screened using a cocktail incubation with CYP specific substrates for eight major drug metabolizing CYP enzymes (CYPs 1A2, 2A6, 2B6, 2C8, 2C9, 2C19, 2D6 and 3A4) in incubations with a pool of human liver microsomes. In reversible inhibition, MIN-102 was incubated with buffer, microsomes, cofactor NADPH and CYP-specific substrate cocktail mix for 15 min. In TDI study, buffer and microsomes were preincubated with MIN-102 in the presence and absence of cofactor NADPH for 0 or 30 min to elucidate the possible time-dependency of inhibition. Secondary incubation was conducted with CYP-specific substrate cocktail mix for 30 min. MIN-102 was used at final concentrations of 0.01, 0.1, 1, 10, and 100 μM in both assays.
# [3] = Stability in the hepatocyte incubation medium; type: in vitro ADME; details: 50 μM, 24-hour incubation
# Experimental: The stability of MIN-102 in the incubation medium was assayed in parallel at the highest test concentration (50 μM) and quantified in incubation medium.
# CYP3A4 = test: CYP induction in cryopreserved human hepatocytes; type: in vitro ADME; details: 50 μM, hepatocytes from 3 human donors
# CYP2C19 = target: T1, CYP2C19 (Homo sapiens, UniProt P33261); test: CYP inhibition, cocktail incubation, pooled human liver microsomes; type: in vitro ADME
# T1 construct: in incubations with a pool of human liver microsomes; from tissue; host or cells: pooled human liver microsomes
# Experimental: as §1
# CYP1A2 = target: T2, CYP1A2 (Homo sapiens, UniProt P05177); test: as above; type: in vitro ADME; details: reaction ACET
# T2 construct: in incubations with a pool of human liver microsomes; from tissue; host or cells: pooled human liver microsomes
# T2 sequence (P05177 1-516): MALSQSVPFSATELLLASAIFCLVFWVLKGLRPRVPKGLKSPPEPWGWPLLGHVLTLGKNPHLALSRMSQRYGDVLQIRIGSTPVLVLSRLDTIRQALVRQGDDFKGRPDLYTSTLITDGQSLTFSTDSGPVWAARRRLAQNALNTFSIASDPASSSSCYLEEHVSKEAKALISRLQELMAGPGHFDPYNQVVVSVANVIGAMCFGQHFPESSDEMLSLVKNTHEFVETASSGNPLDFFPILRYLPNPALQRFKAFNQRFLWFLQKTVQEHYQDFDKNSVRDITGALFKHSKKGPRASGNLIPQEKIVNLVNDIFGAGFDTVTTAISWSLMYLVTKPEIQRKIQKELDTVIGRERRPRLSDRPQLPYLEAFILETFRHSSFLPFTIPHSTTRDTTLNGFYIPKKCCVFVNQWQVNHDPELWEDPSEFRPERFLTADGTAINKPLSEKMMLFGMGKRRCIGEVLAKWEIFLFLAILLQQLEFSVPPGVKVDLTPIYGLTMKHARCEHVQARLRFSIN
# Experimental: as §1
# T1 sequence (P33261 whole entry): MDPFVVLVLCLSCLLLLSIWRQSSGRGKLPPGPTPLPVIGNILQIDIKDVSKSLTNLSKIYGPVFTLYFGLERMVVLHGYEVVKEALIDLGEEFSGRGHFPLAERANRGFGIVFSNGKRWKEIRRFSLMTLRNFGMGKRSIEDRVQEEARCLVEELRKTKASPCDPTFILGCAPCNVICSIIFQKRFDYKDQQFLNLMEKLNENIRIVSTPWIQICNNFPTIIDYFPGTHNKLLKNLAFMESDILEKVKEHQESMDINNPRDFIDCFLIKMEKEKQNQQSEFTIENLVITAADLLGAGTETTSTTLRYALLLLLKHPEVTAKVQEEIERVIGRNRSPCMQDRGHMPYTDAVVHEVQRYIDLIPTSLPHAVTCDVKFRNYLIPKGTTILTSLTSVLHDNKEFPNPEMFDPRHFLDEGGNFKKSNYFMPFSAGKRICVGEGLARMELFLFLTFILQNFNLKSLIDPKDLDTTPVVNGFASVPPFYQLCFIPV
smiles,measurement,setting,value
"CC(O)c1ccc(CCOc2ccc(CC3SC(=O)NC3=O)cc2)nc1 (racemic) [MIN-102, 5-[[4-[2-[5-(1-hydroxyethyl)pyridin-2-yl]ethoxy]phenyl]methyl]-1,3-thiazolidine-2,4-dione]",Mean NAS group score,[1]; mean±SEM,0.44±01
same,reduction in hepatic triglycerides levels,[1]; vs vehicle,92%
same,reduction of plasma ALT level,[1]; vs vehicle,78%
same,reduction of plasma AST level,[1]; vs vehicle,55%
same,reversible or time-dependent inhibition towards major CYP enzymes,[2],did not cause remarkable reversible or time-dependent inhibition
same,stability in incubation medium,[3],remained stable
same,increase in CYP3A4 mRNA,CYP3A4,less than 20 % of the respective positive control induction
same,increase in activity of CYP3A4 probe reaction,CYP3A4,less than 20 % of the respective positive control induction
same,IC50,CYP2C19; reaction 5-OH-OME,> 100 µM
same,IC50,CYP2C19; reaction dem-OME,> 100 µM
same,IC50,CYP1A2,> 100 µM
